Test results from patent publication US6864287B1, “Derivatives of dicarboxylic acid having pharmaceutical properties” (Bayer Aktiengesellschaft, priority 1999, dated 2005).

Columns and labels:
arteria saphena = test: Vasorelaxant action in vitro (phenylephrin-contracted artery rings); parameters: species or system Rabbits; conditions: Oryctolagus cuniculus; rabbit arteria saphena rings, contraction induced by phenylephrin; read-out: IC50 (concentration reducing the phenylephrin-induced contraction by 50%)
Description: Vaso Relaxant Action in Vitro
Rabbits are anaesthetized by intravenous injection of thiopental sodium […] (about 50 mg/kg) and exsanguinated. The arteria saphena is removed and divided into 3 mm wide rings. The rings are individually mounted on in each case one triangular pair of hooks, open at the end, made of 0.3 mm strong special wire (Remanium®). Under a pretension, each ring is transferred into 5 ml organ baths containing a warm, carbogen-aerated Krebs-Henseleit solution at 37° C. having the following composition (mM): NaCl: 119; KCl: 4.8; CaCl2×2H2O: 1; MgSO4×7H2O: 1.4; KH2PO4: 1.2; NaHCO3: 25; glucose: 10; bovine serum albumin: 0.001%. The contractility is detected using Statham UC2 cells, amplified and digitalized by means of A/D converters (DAS-1802 HC, Keithley Instruments Munich), and recorded in parallel on linear recorders. Contractions are induced by addition of phenylephrin.
After several (in general 4) control cycles, the substance to be investigated is added in each further passage in increasing dosage, and the height of the contraction achieved under the influence of the test substance is compared with the height of the contraction achieved in the last preliminary passage. From this, the concentration which is necessary in order to reduce the contraction achieved in the preliminary control by 50% (IC50) is calculated. The standard administration volume is 5 μl. The proportion of DMSO in the bath solution corresponds to 0.1%.

Heme-free sGC = biological target: T1, Heme-free sGC (Rattus norvegicus, UniProt P20595); test: Stimulation of recombinant soluble guanylate cyclase (sGC) in vitro, heme-free enzyme; type: biochemical
T1 construct: made in house; host or cells: baculovirus/Sf9 insect cells
T1 sequence (P20595 1-619): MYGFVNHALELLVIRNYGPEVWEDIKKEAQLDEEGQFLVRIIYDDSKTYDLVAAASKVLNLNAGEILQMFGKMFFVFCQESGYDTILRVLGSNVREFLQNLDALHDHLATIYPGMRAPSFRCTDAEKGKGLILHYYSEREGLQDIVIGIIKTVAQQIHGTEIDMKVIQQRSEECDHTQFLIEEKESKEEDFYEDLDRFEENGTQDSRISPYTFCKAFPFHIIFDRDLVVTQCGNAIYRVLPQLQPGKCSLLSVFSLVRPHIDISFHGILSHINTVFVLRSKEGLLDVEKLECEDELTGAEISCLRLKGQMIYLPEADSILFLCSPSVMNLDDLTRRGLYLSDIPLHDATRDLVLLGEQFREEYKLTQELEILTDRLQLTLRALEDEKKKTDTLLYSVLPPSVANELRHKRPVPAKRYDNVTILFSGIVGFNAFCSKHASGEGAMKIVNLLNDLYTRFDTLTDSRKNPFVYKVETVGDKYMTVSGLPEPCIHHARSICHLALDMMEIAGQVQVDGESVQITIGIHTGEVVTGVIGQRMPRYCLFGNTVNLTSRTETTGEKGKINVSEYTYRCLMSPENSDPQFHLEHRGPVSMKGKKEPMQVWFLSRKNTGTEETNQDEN
T1 sequence (P19686 1-690 partner): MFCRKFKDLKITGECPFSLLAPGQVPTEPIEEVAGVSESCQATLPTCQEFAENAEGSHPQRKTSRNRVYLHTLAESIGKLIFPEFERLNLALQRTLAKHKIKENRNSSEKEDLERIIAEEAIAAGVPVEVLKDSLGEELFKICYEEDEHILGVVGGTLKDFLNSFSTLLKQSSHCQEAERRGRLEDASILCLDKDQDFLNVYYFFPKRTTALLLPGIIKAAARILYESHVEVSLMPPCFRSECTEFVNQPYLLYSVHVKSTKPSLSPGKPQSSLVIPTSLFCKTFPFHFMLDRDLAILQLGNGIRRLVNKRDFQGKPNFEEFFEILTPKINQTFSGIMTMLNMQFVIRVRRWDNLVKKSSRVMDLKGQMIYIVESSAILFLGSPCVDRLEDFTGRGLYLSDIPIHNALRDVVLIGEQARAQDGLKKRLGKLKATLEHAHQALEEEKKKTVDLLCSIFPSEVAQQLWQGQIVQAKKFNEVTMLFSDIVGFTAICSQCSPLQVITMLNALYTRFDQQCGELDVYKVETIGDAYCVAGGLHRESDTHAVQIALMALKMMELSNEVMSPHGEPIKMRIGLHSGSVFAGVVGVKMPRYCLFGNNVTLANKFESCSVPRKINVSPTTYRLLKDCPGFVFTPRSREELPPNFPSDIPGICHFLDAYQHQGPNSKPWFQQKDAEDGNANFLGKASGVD
Description: (§1) Stimulation of Recombinant Soluble […] Cyclase (sGC) in Vitro
(§2) The investigation on the stimulation of recombinant soluble guanylate cyclase (sGC) and the compounds according to the invention with and without sodium nitroprusside and with and without the heme-dependent sGC inhibitor 1H-1,2,4-oxadiazole-(4,3a)-quinoxalin-1-one (ODQ) were carried out by the method described in detail in the following literature reference: M. Hoenicka, E. M. Becker, H. Apeler, T. Sirichoke, H. Schroeder. R Gerzer and J.-P. Stasch: Purified soluble guanylyl cyclase expressed in baculovirus/Sf9 system: stimulation by YC-1, nitric oxide, and carbon oxide. J. Mol, Med. 77 (1999): 14-23.
Heme-free guanylate cyclase was obtained by adding Tween 20 to the sample buffer (final concentration 0.5%).
(§3) Activation of sGC by a test substance is stated as n-fold stimulation of basal activity.

Heme-containing sGC = biological target: T2, Heme-containing sGC (Rattus norvegicus, UniProt P20595); test: Stimulation of recombinant soluble guanylate cyclase (sGC) in vitro, heme-containing enzyme; type: biochemical
T2 construct: made in house; host or cells: baculovirus/Sf9 insect cells
T2 sequence (P20595 1-619): T1 sequence (P20595 1-619)
T2 sequence (P19686 1-690 partner): T1 sequence (P19686 1-690 partner)
Description: as §1, §2, §3

Structure (SMILES): O=C(O)CCCCC(/C=C/c1ccccc1OCc1ccccc1Cl)Cc1ccc(C(=O)O)cc1 (centres unmarked) [Example 14]
- IC50 (arteria saphena): 0.0087 µM

Structure (SMILES): Cc1ccc(/C=C/C(CCCCC(=O)O)Cc2ccc(C(=O)O)cc2)c(OCc2ccccc2)c1 (centres unmarked) [Example 12]
- IC50 (arteria saphena): 0.112 µM

Structure (SMILES): CC(C)(C)c1ccc(COc2ccccc2/C=C/C(CCCCC(=O)O)Cc2ccc(C(=O)O)cc2)cc1 (centres unmarked) [Example 34]
- IC50 (arteria saphena): 0.00035 µM

Structure (SMILES): O=C(O)CCCCC(CCCc1cccc(OCCCCc2ccccc2)c1)Cc1ccc(C(=O)O)cc1 (centres unmarked) [Example 44, 6-(4Carboxybenzyl)-9-(3-(4-phenylbutoxy)phenyl)nonanoic acid]
- IC50 (arteria saphena): 7.8 µM

Structure (SMILES): N#Cc1ccc(CC(/C=C/c2ccccc2OCCCCCc2ccccc2)CCCCC(=O)O)cc1 (centres unmarked) [Example 13]
- IC50 (arteria saphena): 2.6 µM

Structure (SMILES): O=c1onc2cnc3ccccc3n12 [ODQ, 1H-1,2,4-oxadiazole-(4,3a)-quinoxalin-1-one, reference compound]
- Stimulation (n-fold), ODQ alone (Heme-free sGC; ODQ 10 μM, no Ex. 16 (0 μM)): 1 n-fold
- Stimulation (n-fold), ODQ alone (Heme-containing sGC; ODQ 10 μM, no Ex. 16 (0 μM)): 1 n-fold

Structure (SMILES): CCc1ccc(COc2ccccc2/C=C/C(CCCCC(=O)O)Cc2ccc(C(=O)O)cc2)cc1 (centres unmarked) [Example 35]
- IC50 (arteria saphena): 0.0017 µM

Structure (SMILES): O=C(O)CCCCC(/C=C/c1ccccc1OCCCCCc1ccccc1)Cc1ccc(C(=O)O)cc1 (centres unmarked) [Example 16]
- Stimulation (n-fold), + ODQ (10 μM) (Heme-free sGC; 0.1 μM Ex. 16): 12 n-fold
- Stimulation (n-fold), + ODQ (10 μM) (Heme-free sGC; 1.0 μM Ex. 16): 94 n-fold
- Stimulation (n-fold), + ODQ (10 μM) (Heme-free sGC; 10 μM Ex. 16): 291 n-fold
- Stimulation (n-fold), Basal (Heme-free sGC; 0.1 μM Ex. 16): 11 n-fold
- Stimulation (n-fold), Basal (Heme-free sGC; 1.0 μM Ex. 16): 54 n-fold
- Stimulation (n-fold), Basal (Heme-free sGC; 10 μM Ex. 16): 204 n-fold
- IC50 (arteria saphena): 0.005 µM
- Stimulation (n-fold), + ODQ (10 μM) (Heme-containing sGC; 0.1 μM Ex. 16): 27 n-fold
- Stimulation (n-fold), + ODQ (10 μM) (Heme-containing sGC; 1.0 μM Ex. 16): 52 n-fold
- Stimulation (n-fold), + ODQ (10 μM) (Heme-containing sGC; 10 μM Ex. 16): 88 n-fold
- Stimulation (n-fold), + SNP (0.1 μM) (Heme-containing sGC; 0.1 μM Ex. 16): 14 n-fold
- Stimulation (n-fold), + SNP (0.1 μM) (Heme-containing sGC; 1.0 μM Ex. 16): 33 n-fold
- Stimulation (n-fold), + SNP (0.1 μM) (Heme-containing sGC; 10 μM Ex. 16): 29 n-fold
- Stimulation (n-fold), Basal (Heme-containing sGC; 0.1 μM Ex. 16): 4 n-fold
- Stimulation (n-fold), Basal (Heme-containing sGC; 1.0 μM Ex. 16): 9 n-fold
- Stimulation (n-fold), Basal (Heme-containing sGC; 10 μM Ex. 16): 19 n-fold

Structure (SMILES): O=C(O)CCCCC(/C=C/c1ccccc1CCc1ccccc1)Cc1ccc(C(=O)O)cc1 (centres unmarked) [Example 23]
- IC50 (arteria saphena): 0.026 µM

Structure (SMILES): O=C(O)CCCCC(CCc1ccccc1CCc1ccccc1)Cc1ccc(C(=O)O)cc1 (centres unmarked) [Example 40]
- IC50 (arteria saphena): 0.041 µM

Structure (SMILES): O=C(O)CCCCC(/C=C/c1ccccc1OCCCOc1ccccc1)Cc1ccc(C(=O)O)cc1 (centres unmarked) [Example 24]
- IC50 (arteria saphena): 6.2 µM

Structure (SMILES): O=C(O)CCCCC(CCc1ccccc1OCCCCCc1ccccc1)Cc1ccc(C(=O)O)cc1 (centres unmarked) [Example 41]
- IC50 (arteria saphena): 0.0028 µM

Structure (SMILES): O=C(O)CCCCC(/C=C/c1ccccc1OCCCCCc1ccccc1)Cc1ccccc1C(=O)O (centres unmarked) [Example 60]
- IC50 (arteria saphena): 0.608 µM
